Measurements from US8535740B2, “Compositions from Nigella sativa” (priority 2002, dated 2013).
Marks after values point to notes of the source that are not given here.

What was measured:
C2C12 myocytes = assay: Lipolysis (glycerol / free fatty acid release) in C2C12 myocytes; format: cell-based, murine; details: test materials 5 or 2.5 μg/mL (FIG. 10)
Experimental: Cell culture and treatment-Culture and treatment of 3T3-L1 adipocytes and C2C12 myocytes was as described in Example 5. Concentrations of the forskolin positive control and test materials are listed in FIG. 9 for adipocytes and FIG. 10 for myocytes. Glycerol assay-Free fatty acid release from 3T3-L1 adipocytes or C2C12 myocytes was quantified by measuring glycerol secretion into the medium. Glycerol was measured spectrophotometrically using the Free Glycerol Determination Kit ([…], Sigma) and an EL 312e Microplate BIO-KINETICS spectrophotometer (BioTek, Winooski, Vt.). Data analysis-Glycerol release from adipocytes and myocytes was expressed, respectively, as the percent increase in free fatty acid secretion (FIG. 9) and relative glycerol content (glycerol index FIG. 10) ±95% confidence intervals of eight observations for one of three representative experiments.

[1] = tested on: IL-6 secretion in 3T3-L1 adipocytes; assay: IL-6 secretion in t10-CLA-stimulated 3T3-L1 adipocytes; format: cell-based, murine
Experimental: Treatment—Test materials were added four hours prior to the addition of t10-CLA at a concentration of 50 μM. Following overnight incubation, the supernatant media were sampled for determination of IL-6 and adiponectin. Interleukin-6 assay—The IL-6 secreted into the medium in response to […] stimulation was quantified using the Quantikine® Mouse IL-6 Immunoassay kit with no modifications (R&D Systems, Minneapolis, Minn.). […] All supernatant media samples were diluted 1:30 for quantification. Statistical Calculations and Interpretation—Test materials and were assayed in duplicate, while solvent controls were replicated eight times. IL-6 and adiponectin secretion were represented relative to the IL-6 and adiponectin secretion of the t10-CLA only controls as the IL-6 and adiponectin index and differences among the means were analyzed by the student's t-test assuming a five percent probability of a type I error (Excel; Microsoft, Redmond, Wash.).

Caco-2 monolayers = assay: LPS/H2O2-mediated loss of transepithelial electrical resistance in Caco-2 monolayers; format: cell-based, human
Description: Caco-2 Cells—The protocol for growing and differentiation the human Caco-2 colon andenocarcinoma cells was a modification of Protocol 3 as described by Yamashita et al. [Yamashita, S., Konishi, K., Yamazaki, Y., Taki, Y., Sakane, T., Sezaki, H., and Furuyama, Y. (2002) New and better protocols for a short-term Caco-2 cell culture system, J Pharm Sci 91, 669-679]. Caco-2 Human Colon Adenocarcinoma cells were obtained from ATCC (Rockville, Md.; catalog #HTB-37) and maintained in a growth media: DMEM (Dulbecco's Modified Eagles Medium 1×) containing L-glutamine, glucose; Cellgro catalog #35-010CV with the following additions: (1) Penicillin (5,000 IU/mL)/Streptomycin (5,000 μg/mL) Cellgro catalog #30-001C1, (2) 10% FBS—Fetal Bovine Serum, Characterized; Hyclone catalog #SH30071.3, and (3) 1% NEAA—Non Essential Amino Acids; Cellgro catalog #25-025-CI; cells were cultured at 37 C in a humidified air-5% CO2 atmosphere in T175 flasks.
Differentiation of Caco-2 cells to intestinal epithelial cells—BIOCOAT^R HTS Caco-2 Assay System kits (Becton Dickinson, N.J.; catalog #354801) consisting of 24-well fibrillar collagen coated inserts and feeder trays were used in all experiments and plated as follows. Media was removed from the T175 flasks and cells were washed with 10 mLs PBS (phosphate buffered saline 1× without Ca^++, without Mg^++; Cellgro #25-053-CI). […]

In the case of `CC1=CC(=O)C(C(C)C)=CC1=O` [Thymoquinone (Sigma), thymoquinone], the “free fatty acid release in myocytes” value (C2C12 myocytes) is reported as “induced free fatty acid release”, the “effect on IL-6 secretion in t10-CLA-stimulated adipocytes” value ([1]; concentrations of Table 8) is reported as “inhibited IL-6 secretion” and the “IL-6 Index” value ([1]; relative to t10-CLA only control (100), 50 μM t10-CLA, overnight, each material at its tabulated concentration) is reported as 75*. The “Relative Loss of TEER” value (Caco-2 monolayers; 10 uM H2O2 + 50 μg/mL LPS, three hours, positive control set to 100, each material at its tabulated concentration (TQ 5.0, NS8 0.11, NS9 0.99, NS10 0.012, NSSpent#2 0.0005 μg TQ equivalents/mL; Spent#1 5 μg/mL)) was 111 and the “effect on LPS/H2O2-mediated loss of TEER” value (Caco-2 monolayers; concentrations of Table 6) was “no effect”.
